{"source": "a melting point compilation (Tetko et al.; mined from patent text by program, amines drawn as free bases though some values may be those of a salt)"}
{"units": {"melting point": "°C"}}
{"smiles": "COc1cc2c(c3c1OC(C)(C)C3)C(c1ccc(=O)n(C)c1)=NC(C)(C)C2", "melting point": "158 to 159"}
{"smiles": "CSCC[C@H]1NC(=O)[C@@H]([C@H](C)c2cccc3ccccc23)NC1=O", "melting point": "265 to 268"}
{"smiles": "Cc1ccc(S(=O)(=O)N(c2ccc(C#N)cc2C#N)C(C)C)cc1", "melting point": "157 to 158"}
{"smiles": "CCOc1nn(-c2ccc(C(F)(F)F)cn2)cc1CCCOc1cc(CC(=O)O)ccc1OC", "melting point": "142 to 143"}
{"smiles": "CCCCN1CCC(n2nc(-c3cc(Cl)cc4c3OCC4)oc2=O)CC1", "melting point": 134}
{"smiles": "CC(=O)c1cccc2cc3cccc(C(C)=O)c3cc12", "melting point": "178 to 181"}
{"smiles": "OCc1ccc(OCc2ccc3ccccc3n2)cc1", "melting point": "131 to 135"}
{"smiles": "NC(=O)COc1cccc(CCNS(=O)(=O)c2ccc(Cl)cc2)c1", "melting point": 113}
{"smiles": "CCCCCS(=O)(=O)NC(=O)/C=C/c1ccc(OCCOC)cc1Nc1ccc(C(F)(F)F)cc1Cl", "melting point": "174 to 175"}
{"smiles": "CC(=O)N1CC(=Cc2ccncc2)C(=O)c2ccccc21", "melting point": 170}
{"smiles": "CCOC(=O)COc1cc2c(c(Cl)c1Cl)C(=O)C(C)(C(C)C)C2", "note": "(stereo unspecified)", "melting point": 113}
{"smiles": "Fc1cc(CC2(Cc3ccncc3)c3cccnc3-c3sccc32)ccn1", "note": "(stereo unspecified)", "melting point": "192 to 193"}
{"smiles": "CCN1CCC(CCC2CCN(c3ncnc4cc(OC)c(OC)cc34)CC2)S1(=O)=O", "note": "(stereo unspecified)", "melting point": 130}
{"smiles": "CCCC(CNC(=O)Cc1c(Cl)cncc1Cl)c1cccc(OC)c1", "note": "(stereo unspecified)", "melting point": "97 to 98"}
{"smiles": "CCOC(=O)CNC(=O)CCc1cc(Cl)ccc1C(=O)CCCNC(C)=O", "melting point": 96}
{"smiles": "Clc1ccc2onc(CBr)c2c1", "melting point": "83 to 85"}
{"smiles": "COc1ccc(-c2nn(C(C)c3oc4ccccc4c(=O)c3-c3cccc(F)c3)c3ncnc(N)c23)cc1OC", "note": "(stereo unspecified)", "melting point": "232 to 235"}
{"smiles": "CCCCCCCC[Si](C)(C)CCSCCNC(=O)n1cc(F)c(=O)[nH]c1=O", "melting point": "60 to 61"}
{"smiles": "COc1ccc(-c2nc(S(=O)(=O)c3ccc(C)cc3)n(Cc3ccccc3)c2-c2ccc(OC)cc2)cc1", "melting point": "154 to 156"}
{"smiles": "C[C@@]1(CBr)OC(=O)[C@H]2CCCN2C1=O", "melting point": "107 to 109"}
{"smiles": "Cc1ccc(C)n1CCNC(=O)c1ccc(Cl)cc1", "melting point": "104 to 105"}
{"smiles": "O=C1COc2ccc(NC(=O)C(=O)N3CCC(Cc4ccc(F)cc4)CC3)cc2N1", "melting point": "197 to 200"}
{"smiles": "O=S(=O)(Br)c1ccc(Br)s1", "melting point": "48 to 50"}
{"smiles": "Cc1ccccc1P(=O)(Cc1ccc2ccccc2c1-c1c(CP(=O)(c2ccccc2C)c2ccccc2C)ccc2ccccc12)c1ccccc1C", "melting point": "231 to 234"}
{"smiles": "COc1ccc(C(C#N)Cc2c(Cl)cncc2Cl)c2c1OC(C)(C)C2", "note": "(stereo unspecified)", "melting point": "158 to 162"}
{"smiles": "O=NN(CCCl)C(=O)NC1(C(=O)Nc2nncs2)CCCC1", "melting point": 160}
{"smiles": "C#CC1N(C(=O)Oc2ccccc2)c2ccc(OC)cc2C23OC12CCCC3=O", "note": "(stereo unspecified)", "melting point": "186 to 188"}
{"smiles": "O=C(NCc1ccccc1Cl)c1ccc2cnccc2n1", "melting point": "120 to 121"}
{"smiles": "COc1ccc(C2Sc3c(ccc4ccccc34)N(CCN(C)C)C(=O)C2O)cc1", "note": "(stereo unspecified)", "melting point": "160 to 161"}
{"smiles": "c1cc2c3c(ccc(OCCCN4CCCCC4)c3c1)-c1cc(OCCCN3CCCCC3)ccc1-2", "melting point": "92 to 93"}
{"smiles": "CCc1cc(OCc2ccc(-c3ccccc3-c3nnn(C(c4ccccc4)(c4ccccc4)c4ccccc4)n3)cc2)c2c(n1)CCN(C)C2", "melting point": "143 to 144"}
{"smiles": "N#Cc1ccc2oc(CCCCCc3cc4cc(C#N)ccc4o3)cc2c1", "melting point": "133 to 134"}
{"smiles": "COc1ccccc1-c1ccc(C[C@H](NC(=O)c2c(Cl)cccc2Cl)C(=O)O)cc1OC", "melting point": "100 to 102"}
{"smiles": "CCCCc1nc2c(N)nc3ccccc3c2n1CCCNC(=O)c1cc2ccccc2cn1", "melting point": "204 to 205"}
{"smiles": "CC1(COc2ccc(N3CCC(Oc4ccc(OC(F)(F)F)cc4)CC3)cc2)Cn2cc([N+](=O)[O-])nc2O1", "note": "(stereo unspecified)", "melting point": "165 to 166"}
{"smiles": "COc1c(Cl)ccc(-c2nc(C(=O)OCc3ccc(OC(F)(F)F)cc3)c(Cl)c(N)c2F)c1F", "melting point": "155 to 156"}
{"smiles": "CCCc1nc2c(N)nc3cc(OCc4cccc(N)c4)ccc3c2n1CC(C)C", "melting point": "228 to 230"}
{"smiles": "O=C(O)C1CN(CCCS(=O)(=O)O)CCN1", "note": "(stereo unspecified)", "melting point": "190 to 191"}
{"smiles": "O=Cc1ccc(OCCN2C(=O)c3ccccc3C2=O)cc1", "melting point": 138}
{"smiles": "S=C1CNc2ccccc2CN1", "melting point": "150 to 153"}
{"smiles": "Cc1ccc(Cc2nc3c(cnn3C(CCCc3ccccc3)C(C)O)c(=O)[nH]2)cc1", "note": "(stereo unspecified)", "melting point": 133}
{"smiles": "COc1cc([N+](=O)[O-])c(NC(C)=O)cc1Cl", "melting point": "152 to 153"}
{"smiles": "O=C1Cc2cc(NC(=O)C(=O)N3CCC(Cc4ccc(Cl)cc4)CC3)ccc2N1", "melting point": 195}
{"smiles": "COc1cc2c(cc1F)C1(CO2)C(=O)N(CC2CCCO2)c2ccccc21", "note": "(stereo unspecified)", "melting point": "106 to 116"}
{"smiles": "CC1(C)CN(c2ncc(C(=O)N(CC3CC3)c3cccc(C(F)(F)F)c3)c(N)n2)C(=O)N1", "melting point": "193 to 194"}
{"smiles": "CNC(=O)c1ccc(F)c2c1CC(N(CCc1c[nH]c3ccc(F)cc13)CC1CC1)CO2", "note": "(stereo unspecified)", "melting point": 138}
{"smiles": "CCCc1nc2c(C)ccnc2n1Cc1ccc2[nH]ccc2c1", "melting point": "110 to 112"}
{"smiles": "CNC(=O)C1CN=CNC1", "note": "(stereo unspecified)", "melting point": "150 to 151"}
{"smiles": "Cc1ccc(N2CCCN(c3ccnc4sc(C(N)=O)c(N)c34)CC2)cc1[N+](=O)[O-]", "melting point": "114 to 117"}
{"smiles": "CCCCCNc1nc(NC(C)C)c2ncn(CC(=O)O)c2n1", "melting point": "173 to 176"}
{"smiles": "Clc1ncnc2ccccc12", "melting point": 83}
{"smiles": "O=C1Nc2ccccc2Oc2ncccc21", "melting point": "250 to 253"}
{"smiles": "COP(=O)(OC)c1cc(Oc2c(Cl)cc(C(F)(F)F)cc2Cl)ccc1[N+](=O)[O-]", "melting point": "106 to 107"}
{"smiles": "O=C(Nc1ccccc1)Nc1ccc(-c2ccc(C(=O)N3CCN4CCC3CC4)o2)cc1", "melting point": "125 to 130"}
{"smiles": "CCn1c2ccccc2c2ccncc21", "melting point": "195 to 196"}
{"smiles": "CC1(C)CCC(C)(C)c2cc3[nH]c(-c4ccc(C(=O)O)cc4)cc3cc21", "melting point": "294 to 296"}
{"smiles": "CCCCCCS(=O)(=O)c1nn2c(=O)c([N+](=O)[O-])c(OC)nc2s1", "melting point": "150 to 152"}
{"smiles": "O=C(CCO)Nc1cccc(-c2ccc3c(c2)C(c2ccc(Cl)cc2Cl)CC3)c1", "note": "(stereo unspecified)", "melting point": "202 to 203"}
{"smiles": "COc1ccc(-c2c(Br)oc3cc(OC)cc(OC)c23)cc1", "melting point": "125 to 126"}
{"smiles": "CCOC(=O)CC(NC(=O)c1ccc(F)cc1)C(=O)c1ccco1", "note": "(stereo unspecified)", "melting point": "95.5 to 97"}
{"smiles": "CONC(=O)c1cc2c(Sc3ccc(C)cc3)cncc2s1", "melting point": "200 to 203"}
{"smiles": "O=C(/C=C/c1cccc(S(=O)(=O)N2CCN(Cc3ccc4c(c3)OCO4)CC2)c1)NO", "melting point": 172}
{"smiles": "Cc1c(O)c(=O)ccn1CCCCCO", "melting point": "136 to 138"}
{"smiles": "CC1=C(c2ccc(Cl)cc2)n2ncc3c(=O)[nH]c(=S)n(c32)C1", "melting point": "283 to 285"}
{"smiles": "CCc1c([N+](=O)[O-])c(C(N)=O)nn1CCN1CCOCC1", "melting point": "132 to 133"}
{"smiles": "CCOC(=O)c1ccc(C(F)(F)F)cc1SC", "melting point": "44 to 45"}
{"smiles": "CSC1NC(=O)N(c2ccccc2)C(=O)N1N=C(C)C", "note": "(stereo unspecified)", "melting point": "206 to 207"}
{"smiles": "CN1C(=O)CC(c2ccccc2)C1C(O)c1ccc(C(=O)Nc2ccccc2)s1", "note": "(stereo unspecified)", "melting point": "223 to 227"}
{"smiles": "O=C(O)CCCN1C(=O)C(c2ccccc2)SC1=S", "note": "(stereo unspecified)", "melting point": "138 to 139"}
{"smiles": "CNC(=S)C1(c2cnc3ccccc3c2)CCCS1", "note": "(stereo unspecified)", "melting point": 159}
{"smiles": "OC1(Cc2ccccc2F)CCN(Cc2ccccc2)C1", "note": "(stereo unspecified)", "melting point": "75 to 77"}
